Reference: patent US20240101528A1, “SUBSTITUTED PYRAZOLO PIPERIDINE CARBOXYLIC ACIDS” (BAYER AKTIENGESELLSCHAFT, priority 2020, published 2024)
Counter-ions that a name gives are not always drawn.

Target: T1, recombinant guanylate cyclase reporter cell line (Rattus norvegicus, UniProt P20595)
T1 construct: expressed in transfected cells
T1 sequence (P20595 1-619): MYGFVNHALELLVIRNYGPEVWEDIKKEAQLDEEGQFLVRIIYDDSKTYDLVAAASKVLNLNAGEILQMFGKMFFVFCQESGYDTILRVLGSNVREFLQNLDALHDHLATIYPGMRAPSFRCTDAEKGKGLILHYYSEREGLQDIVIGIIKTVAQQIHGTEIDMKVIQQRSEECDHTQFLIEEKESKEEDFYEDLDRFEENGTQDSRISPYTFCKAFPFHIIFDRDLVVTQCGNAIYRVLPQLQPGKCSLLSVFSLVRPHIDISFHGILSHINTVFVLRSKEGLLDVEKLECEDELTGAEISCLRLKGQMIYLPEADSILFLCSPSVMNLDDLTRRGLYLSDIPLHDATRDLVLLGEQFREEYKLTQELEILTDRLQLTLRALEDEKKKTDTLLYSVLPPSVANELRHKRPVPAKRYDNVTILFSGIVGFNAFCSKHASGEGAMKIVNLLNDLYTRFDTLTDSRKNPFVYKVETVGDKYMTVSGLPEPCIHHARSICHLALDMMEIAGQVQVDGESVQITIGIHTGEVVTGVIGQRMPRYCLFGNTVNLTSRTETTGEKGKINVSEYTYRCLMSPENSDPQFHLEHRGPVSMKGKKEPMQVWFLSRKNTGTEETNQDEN
T1 sequence (P19686 1-690 partner): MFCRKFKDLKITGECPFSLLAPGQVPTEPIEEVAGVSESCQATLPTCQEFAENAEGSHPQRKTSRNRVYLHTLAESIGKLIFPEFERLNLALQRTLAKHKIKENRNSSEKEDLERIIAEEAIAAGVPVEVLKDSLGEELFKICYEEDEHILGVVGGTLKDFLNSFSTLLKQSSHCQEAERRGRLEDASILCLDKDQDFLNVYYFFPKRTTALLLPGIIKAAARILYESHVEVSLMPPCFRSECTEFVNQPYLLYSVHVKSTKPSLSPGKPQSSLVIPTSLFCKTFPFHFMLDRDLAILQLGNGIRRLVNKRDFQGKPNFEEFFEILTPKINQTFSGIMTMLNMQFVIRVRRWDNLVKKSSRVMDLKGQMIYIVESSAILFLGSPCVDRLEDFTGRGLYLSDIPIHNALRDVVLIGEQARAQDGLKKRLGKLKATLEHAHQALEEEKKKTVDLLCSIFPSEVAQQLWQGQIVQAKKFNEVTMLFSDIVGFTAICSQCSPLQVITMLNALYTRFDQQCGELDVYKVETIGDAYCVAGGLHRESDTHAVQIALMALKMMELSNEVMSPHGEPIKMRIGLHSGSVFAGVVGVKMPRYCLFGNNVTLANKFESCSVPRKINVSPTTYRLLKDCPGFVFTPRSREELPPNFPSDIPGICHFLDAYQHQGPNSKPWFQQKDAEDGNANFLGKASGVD
Test: Effect on a recombinant guanylate cyclase reporter cell line
Type: cell-based
Conditions: for EC50: half maximal effective concentration; for MEC: minimum effective concentration
Protocol: B-1. Effect on a Recombinant Guanylate Cyclase Reporter Cell Line
The cellular activity of the compounds according to the invention was determined using a recombinant guanylate cyclase reporter cell line, as described in F. Wunder et al., Anal. Biochem. 339, 104-112 (2005).

Row | Structure (SMILES) | EC50 [nM] | MEC [nM]
1 | O=C(O)c1cnn(C2CCCN(c3cc(Cl)ccc3-c3ccc(N4CCN(CC56CC(F)(C5)C6)CC4)cc3)C2)c1C(F)F (single isomer, unassigned; enantiomer 2) [Example 17, 1-[1-(4-Chloro-4′-{4-[(3-fluorobicyclo[1.1.1]pentan-1-yl)methyl]piperazin-1-yl}[biphenyl]-2-yl)piperidin-3-yl]-5-(difluoromethyl)-1H-pyrazole-4-carboxylic acid hydrochloride (Enantiomer 2)] | 10.2 | 1.0
2 | CCC(=O)N1CCC(c2ccc(-c3ccc(Cl)cc3N3CCCC(n4ncc(C(=O)O)c4C(F)F)C3)cc2)CC1 (single isomer, unassigned; enantiomer 2) [Example 56, 1-{1-[4-Chloro-4′-(1-propanoylpiperidin-4-yl)[biphenyl]-2-yl]piperidin-3-yl}-5-(difluoromethyl)-1H-pyrazole-4-carboxylic acid hydrochloride (Enantiomer 2)] | 1.5 | 1.0
3 | CC(C)(C)CN1CCN(c2ccc(-c3ccc(Cl)cc3N3CCCC(n4ncc(C(=O)O)c4C(F)F)C3)cc2)CC1 (single isomer, unassigned; enantiomer 1) [Example 12, 1-[(1-{4-Chloro-4′-[4-(2,2-dimethylpropyl)piperazin-1-yl][biphenyl]-2-yl}piperidin-3-yl]-5-(difluoromethyl)-1H-pyrazole-4-carboxylic acid hydrochloride (Enantiomer 1)] | 61.5 | 10.0
4 | CC(C)CN1CCN(c2ccc(-c3ccc(Cl)cc3N3CC(n4ncc(C(=O)O)c4C(F)F)CC(F)(F)C3)cc2)CC1 (single isomer, unassigned; enantiomer 1) [Example 54, 1-{1-[4-Chloro-4′-(4-isobutylpiperazin-1-yl)[biphenyl]-2-yl]-5,5-difluoropiperidin-3-yl}-5-(difluoromethyl)-1H-pyrazole-4-carboxylic acid hydrochloride (Enantiomer 1)] | 8.4 | 3.0
5 | CC(F)(F)CN1CCN(c2ccc(-c3ccc(Cl)cc3N3CCCC(n4ncc(C(=O)O)c4C(F)F)C3)cc2)CC1 (single isomer, unassigned; enantiomer 1) [Example 24, 1-(1-{4-Chloro-4′-[4-(2,2-difluoropropyl)piperazin-1-yl][biphenyl]-2-yl}piperidin-3-yl)-5-(difluoromethyl)-1H-pyrazole-4-carboxylic acid hydrochloride (Enantiomer 1)] | 1.8 | 0.3
6 | CCN1CCN(c2ccc(-c3ccc(Cl)cc3N3CCCC(n4ncc(C(=O)O)c4C(F)F)C3)cn2)CC1 (single isomer, unassigned; enantiomer 2) [Example 60, 1-(1-{5-Chloro-2-[6-(4-ethylpiperazin-1-yl)pyridin-3-yl]phenyl}piperidin-3-yl)-5-(difluoromethyl)-1H-pyrazole-4-carboxylic acid hydrochloride (Enantiomer 2)] | 70 | 30.0
7 | O=C(O)c1cnn(C2CCCN(c3cc(Cl)ccc3-c3ccc(N4CCN(CC5CC56CC6)CC4)cc3)C2)c1C(F)F (mixture of isomers) [Example 41, 1-[1-[5-Chloro-2-[4-[4-(spiro[2.2]pentan-2-ylmethyl)piperazin-1-yl]phenyl]phenyl]-3-piperidyl]-5-(difluoromethyl)pyrazole-4-carboxylic acid hydrochloride (Diastereomeric mixture 2)] | 8.3 | 1.0
8 | O=C(O)c1cnn(C2CCCN(c3cc(Cl)ccc3-c3ccc(N4CCN(CCC(F)(F)F)CC4)nc3)C2)c1C(F)F (single isomer, unassigned; enantiomer 1) [Example 66, 1-[1-(5-Chloro-2-{6-[4-(3,3,3-trifluoropropyl)piperazin-1-yl]pyridin-3-yl}phenyl)piperidin-3-yl]-5-(difluoromethyl)-1H-pyrazole-4-carboxylic acid hydrochloride (Enantiomer 1)] | < 1 | <0.3
9 | CCN1CCN(c2ccc(-c3ccc(C(F)(F)F)cc3N3CCCC(n4ncc(C(=O)O)c4C(F)F)C3)cc2)CC1 (single isomer, unassigned; enantiomer 2) [Example 74, 5-(Difluoromethyl)-1-{1-[4′-(4-ethylpiperazin-1-yl)-4-(trifluoromethyl)[biphenyl]-2-yl]piperidin-3-yl}-1H-pyrazole-4-carboxylic acid hydrochloride (Enantiomer 2)] | 79.5 | 10.0
10 | O=C(O)c1cnn(C2CCCN(c3cc(Cl)ccc3-c3ccc(N4CCN(CC5CC5(F)F)CC4)cc3)C2)c1C(F)F (single isomer, unassigned; diastereomer 4) [Example 31, 1-{1-[4-Chloro-4′-(4-{[2,2-difluorocyclopropyl]methyl}piperazin-1-yl)[biphenyl]-2-yl]piperidin-3-yl}-5-(difluoromethyl)-1H-pyrazole-4-carboxylic acid hydrochloride (Diastereomer 4)] | 5.1 | 1.0
11 | O=C(O)c1cnn(C2CCCN(c3cc(Cl)ccc3-c3ccc(N4CCN(CC5CC5(F)F)CC4)cc3)C2)c1C(F)F (single isomer, unassigned; diastereomer 3) [Example 30, 1-{1-[4-Chloro-4′-(4-{[2,2-difluorocyclopropyl]methyl}piperazin-1-yl)[biphenyl]-2-yl]piperidin-3-yl}-5-(difluoromethyl)-1H-pyrazole-4-carboxylic acid hydrochloride (Diastereomer 3)] | 2 | 0.3
12 | O=C(O)c1cnn(C2CCCN(c3cc(Cl)ccc3-c3ccc(N4CCN(CC5CC5C(F)(F)F)CC4)cc3)C2)c1C(F)F (mixture of isomers) [Example 38, 1-{1-[4-Chloro-4′-(4-{[cis-2-(trifluoromethyl)cyclopropyl]methyl}piperazin-1-yl) [biphenyl]-2-yl]piperidin-3-yl}-5-(difluoromethyl)-1H-pyrazole-4-carboxylic acid hydrochloride (Diastereoisomeric Mixture 1)] | 7.1 | 1.0
13 | CC(C)(C)CN1CCN(c2ccc(-c3ccc(Cl)cc3N3CCCC(n4ncc(C(=O)O)c4C(F)F)C3)cc2)CC1 (single isomer, unassigned; enantiomer 2) [Example 13, 1-[(1-{4-Chloro-4′-[4-(2,2-dimethylpropyl)piperazin-1-yl][biphenyl]-2-yl}piperidin-3-yl]-5-(difluoromethyl)-1H-pyrazole-4-carboxylic acid hydrochloride (Enantiomer 2)] | 89 | 3.0
14 | CCN1CCN(c2ccc(-c3ccc(Cl)cc3N3CCCC(n4ncc(C(=O)O)c4C(F)F)C3)cc2)CC1 (single isomer, unassigned; enantiomer 2) [Example 4, 1-{1-[4-Chloro-4′-(4-ethylpiperazin-1-yl)[biphenyl]-2-yl]piperidin-3-yl}-5-(difluoromethyl)-1H-pyrazole-4-carboxylic acid hydrochloride (Enantiomer 2)] | 13 | 1.3
15 | O=C(O)c1cnn(C2CCCN(c3cc(Cl)ccc3-c3cnc(N4CCN(CC5CC5)CC4)nc3)C2)c1C(F)F (single isomer, unassigned; enantiomer 2) [Example 72, 1-[1-(5-Chloro-2-{2-[4-(cyclopropylmethyl)piperazin-1-yl]pyrimidin-5-yl}phenyl)piperidin-3-yl]-5-(difluoromethyl)-1H-pyrazole-4-carboxylic acid hydrochloride (Enantiomer 2)] | 18 | 3.0
16 | CC(C)(F)C(=O)N1CCN(c2ccc(-c3ccc(Cl)cc3N3CCCC(n4ncc(C(=O)O)c4C(F)F)C3)cc2)CC1 (single isomer, unassigned; enantiomer 2) [Example 49, 1-(1-{4-Chloro-4′-[4-(2-fluoro-2-methylpropanoyl)piperazin-1-yl][biphenyl]-2-yl}piperidin-3-yl)-5-(difluoromethyl)-1H-pyrazole-4-carboxylic acid (Enantiomer 2)] | 13.9 | 3.0
